Assay results from ChEMBL document CHEMBL1145390, “Synthesis and preliminary biological characterization of new semisynthetic derivatives of ramoplanin” (J Med Chem, 2007).
Values after ≈ are worked out from the molar mass of the structure shown.

Key:
Enterococcus faecalis [1] = test: Antibacterial activity against Enterococcus faecalis after 24 hrs by broth microdilution method; type: functional; conditions: read-out: MIC
Staphylococcus aureus [2] = test: Antibacterial activity against Staphylococcus aureus Smith after 24 hrs by broth microdilution method; type: functional; conditions: read-out: MIC
Staphylococcus aureus [3] = test: Antibacterial activity against methicillin-resistant Staphylococcus aureus clinical isolate after 24 hrs by broth microdilution method; type: functional; conditions: read-out: MIC
Staphylococcus aureus [4] = test: Antibacterial activity against methicillin-resistant and vancomycin-intermediate resistant Staphylococcus aureus clinical isolate after 24 hrs by broth microdilution method; type: functional; conditions: read-out: MIC
Staphylococcus aureus [5] = test: Antibacterial activity against vancomycin-intermediate resistant Staphylococcus aureus clinical isolate after 24 hrs by broth microdilution method; type: functional
Streptococcus pyogenes = test: Antibacterial activity against Streptococcus pyogenes C203 after 24 hrs by broth microdilution method; type: functional; conditions: C203, 24 h, read-out: MIC
Enterococcus faecalis [6] = test: Antibacterial activity against vancomycin A-resistant Enterococcus faecalis after 24 hrs by broth microdilution method; type: functional; conditions: read-out: MIC
Enterococcus faecium [7] = test: Antibacterial activity against Enterococcus faecium after 24 hrs by broth microdilution method; type: functional; conditions: read-out: MIC
Enterococcus faecium [8] = test: Antibacterial activity against vancomycin A-resistant Enterococcus faecium clinical isolate after 24 hrs by broth microdilution method; type: functional; conditions: read-out: MIC
Escherichia coli = test: Antibacterial activity against Escherichia coli SKF-12140 after 24 hrs by broth microdilution method; type: functional; conditions: read-out: MIC
Candida albicans = test: Antifungal activity against Candida albicans SKF-2270 after 24 hrs by broth microdilution method; type: functional; conditions: read-out: MIC
[9] = Toxicity assessed as hemolysis in erythrocytes at 180 mg/L; type: cell-based, Erythrocyte; conditions: human, erythrocytes; read-out: Activity
[10] = Toxicity assessed as hemolysis in erythrocytes at 90 mg/L; type: cell-based, Erythrocyte; conditions: human, erythrocytes; read-out: Activity

SMILES	MIC (Enterococcus faecalis [1]) [µg/mL]	MIC (Staphylococcus aureus [2]) [µg/mL]	MIC (Staphylococcus aureus [3]) [µg/mL]	MIC (Staphylococcus aureus [4]) [µg/mL]	MIC (Staphylococcus aureus [5]) [µg/mL]	MIC (Streptococcus pyogenes) [µg/mL]	MIC (Enterococcus faecalis [6]) [µg/mL]	MIC (Enterococcus faecium [7]) [µg/mL]	MIC (Enterococcus faecium [8]) [µg/mL]	MIC (Escherichia coli) [µg/mL]	MIC (Candida albicans) [µg/mL]	hemolysis at 180 mg/L [9] [%]	hemolysis at 90 mg/L [10] [%]
CCc1ccc(C(=O)N[C@@H](CC(N)=O)C(=O)NC[C@@H]2C(=O)N[C@H](c3ccc(O)cc3)C(=O)N[C@H](CCCN)C(=O)N[C@H](C(C)C)C(=O)N[C@@H](c3ccc(O)cc3)C(=O)N[C@H](c3ccc(O)cc3)C(=O)N[C@@H]([C@@H](C)O)C(=O)N[C@@H](Cc3ccccc3)C(=O)N[C@H](CCCN)C(=O)N[C@@H](c3ccc(O[C@H]4O[C@H](CO)[C@@H](O)[C@H](O)[C@@H]4O[C@H]4O[C@H](CO)[C@@H](O)[C@H](O)[C@@H]4O)cc3)C(=O)N[C@H]([C@@H](C)O)C(=O)N[C@@H](c3ccc(O)cc3)C(=O)NCC(=O)N[C@@H](CC(C)C)C(=O)N[C@H](C)C(=O)N[C@@H](c3ccc(O)c(Cl)c3)C(=O)O[C@@H]2C(N)=O)cc1	1 (≈ 0.39 µM)	0.5 (≈ 0.195 µM)	1 (≈ 0.39 µM)	4 (≈ 1.56 µM)	> 32	< 0.03	1 (≈ 0.39 µM)	1 (≈ 0.39 µM)	1 (≈ 0.39 µM)	> 32	> 32	62	36
CC(C)C[C@@H]1NC(=O)CNC(=O)[C@H](c2ccc(O)cc2)NC(=O)[C@@H]([C@@H](C)O)NC(=O)[C@H](c2ccc(O[C@H]3O[C@H](CO)[C@@H](O)[C@H](O)[C@@H]3O[C@H]3O[C@H](CO)[C@@H](O)[C@H](O)[C@@H]3O)cc2)NC(=O)[C@@H](CCCN)NC(=O)[C@H](Cc2ccccc2)NC(=O)[C@H]([C@@H](C)O)NC(=O)[C@@H](c2ccc(O)cc2)NC(=O)[C@H](c2ccc(O)cc2)NC(=O)[C@@H](C(C)C)NC(=O)[C@@H](CCCN)NC(=O)[C@@H](c2ccc(O)cc2)NC(=O)[C@@H](CNC(=O)[C@H](CC(N)=O)NC(=O)c2ccc(O)cc2)[C@@H](C(N)=O)OC(=O)[C@H](c2ccc(O)c(Cl)c2)NC(=O)[C@@H](C)NC1=O	16 (≈ 6.27 µM)	32 (≈ 12.5 µM)	32 (≈ 12.5 µM)	> 32	> 32	0.5 (≈ 0.196 µM)	32 (≈ 12.5 µM)	32 (≈ 12.5 µM)	32 (≈ 12.5 µM)	> 32	> 32	4	0
CCCCCCCCCCCCCC(=O)N[C@@H](CC(N)=O)C(=O)NC[C@@H]1C(=O)N[C@H](c2ccc(O)cc2)C(=O)N[C@H](CCCN)C(=O)N[C@H](C(C)C)C(=O)N[C@@H](c2ccc(O)cc2)C(=O)N[C@H](c2ccc(O)cc2)C(=O)N[C@@H]([C@@H](C)O)C(=O)N[C@@H](Cc2ccccc2)C(=O)N[C@H](CCCN)C(=O)N[C@@H](c2ccc(O[C@H]3O[C@H](CO)[C@@H](O)[C@H](O)[C@@H]3O[C@H]3O[C@H](CO)[C@@H](O)[C@H](O)[C@@H]3O)cc2)C(=O)N[C@H]([C@@H](C)O)C(=O)N[C@@H](c2ccc(O)cc2)C(=O)NCC(=O)N[C@@H](CC(C)C)C(=O)N[C@H](C)C(=O)N[C@@H](c2ccc(O)c(Cl)c2)C(=O)O[C@@H]1C(N)=O	4 (≈ 1.51 µM)	16 (≈ 6.06 µM)	16 (≈ 6.06 µM)	32 (≈ 12.1 µM)	32 (≈ 12.1 µM)	4 (≈ 1.51 µM)	4 (≈ 1.51 µM)	8 (≈ 3.03 µM)	4 (≈ 1.51 µM)	> 32	> 32	59	2
CC(C)C[C@@H]1NC(=O)CNC(=O)[C@H](c2ccc(O)cc2)NC(=O)[C@@H]([C@@H](C)O)NC(=O)[C@H](c2ccc(O[C@H]3O[C@H](CO)[C@@H](O)[C@H](O)[C@@H]3O[C@H]3O[C@H](CO)[C@@H](O)[C@H](O)[C@@H]3O)cc2)NC(=O)[C@@H](CCCN)NC(=O)[C@H](Cc2ccccc2)NC(=O)[C@H]([C@@H](C)O)NC(=O)[C@@H](c2ccc(O)cc2)NC(=O)[C@H](c2ccc(O)cc2)NC(=O)[C@@H](C(C)C)NC(=O)[C@@H](CCCN)NC(=O)[C@@H](c2ccc(O)cc2)NC(=O)[C@@H](CNC(=O)[C@H](CC(N)=O)NC(=O)Cc2ccc3ccccc3c2)[C@@H](C(N)=O)OC(=O)[C@H](c2ccc(O)c(Cl)c2)NC(=O)[C@@H](C)NC1=O.Cl	0.125	0.25	0.25	1	1	≤ 0.03	0.125	0.25	0.25	> 32	> 32	59	24
CCCCOc1ccc(C(=O)N[C@@H](CC(N)=O)C(=O)NC[C@@H]2C(=O)N[C@H](c3ccc(O)cc3)C(=O)N[C@H](CCCN)C(=O)N[C@H](C(C)C)C(=O)N[C@@H](c3ccc(O)cc3)C(=O)N[C@H](c3ccc(O)cc3)C(=O)N[C@@H]([C@@H](C)O)C(=O)N[C@@H](Cc3ccccc3)C(=O)N[C@H](CCCN)C(=O)N[C@@H](c3ccc(O[C@H]4O[C@H](CO)[C@@H](O)[C@H](O)[C@@H]4O[C@H]4O[C@H](CO)[C@@H](O)[C@H](O)[C@@H]4O)cc3)C(=O)N[C@H]([C@@H](C)O)C(=O)N[C@@H](c3ccc(O)cc3)C(=O)NCC(=O)N[C@@H](CC(C)C)C(=O)N[C@H](C)C(=O)N[C@@H](c3ccc(O)c(Cl)c3)C(=O)O[C@@H]2C(N)=O)cc1	0.25 (≈ 0.0959 µM)	0.25 (≈ 0.0959 µM)	0.5 (≈ 0.192 µM)	4 (≈ 1.53 µM)	4 (≈ 1.53 µM)	0.125 (≈ 0.048 µM)	0.25 (≈ 0.0959 µM)	0.25 (≈ 0.0959 µM)	0.25 (≈ 0.0959 µM)	> 32	> 32	5	0
CCCCCC(=O)N[C@@H](CC(N)=O)C(=O)NC[C@@H]1C(=O)N[C@H](c2ccc(O)cc2)C(=O)N[C@H](CCCN)C(=O)N[C@H](C(C)C)C(=O)N[C@@H](c2ccc(O)cc2)C(=O)N[C@H](c2ccc(O)cc2)C(=O)N[C@@H]([C@@H](C)O)C(=O)N[C@@H](Cc2ccccc2)C(=O)N[C@H](CCCN)C(=O)N[C@@H](c2ccc(O[C@H]3O[C@H](CO)[C@@H](O)[C@H](O)[C@@H]3O[C@H]3O[C@H](CO)[C@@H](O)[C@H](O)[C@@H]3O)cc2)C(=O)N[C@H]([C@@H](C)O)C(=O)N[C@@H](c2ccc(O)cc2)C(=O)NCC(=O)N[C@@H](CC(C)C)C(=O)N[C@H](C)C(=O)NC(c2ccc(O)c(Cl)c2)C(=O)O[C@@H]1C(N)=O (some centres undefined)	2 (≈ 0.791 µM)	4 (≈ 1.58 µM)	4 (≈ 1.58 µM)	32 (≈ 12.7 µM)	16 (≈ 6.33 µM)	0.125 (≈ 0.0494 µM)	2 (≈ 0.791 µM)	4 (≈ 1.58 µM)	4 (≈ 1.58 µM)	> 32	> 32	8	0
CC(C)C[C@@H]1NC(=O)CNC(=O)[C@H](c2ccc(O)cc2)NC(=O)[C@@H]([C@@H](C)O)NC(=O)[C@H](c2ccc(O[C@H]3O[C@H](CO)[C@@H](O)[C@H](O)[C@@H]3O[C@H]3O[C@H](CO)[C@@H](O)[C@H](O)[C@@H]3O)cc2)NC(=O)[C@@H](CCCN)NC(=O)[C@H](Cc2ccccc2)NC(=O)[C@H]([C@@H](C)O)NC(=O)[C@@H](c2ccc(O)cc2)NC(=O)[C@H](c2ccc(O)cc2)NC(=O)[C@@H](C(C)C)NC(=O)[C@@H](CCCN)NC(=O)[C@@H](c2ccc(O)cc2)NC(=O)[C@@H](CNC(=O)[C@H](CC(N)=O)NC(=O)c2ccccc2)[C@@H](C(N)=O)OC(=O)[C@H](c2ccc(O)c(Cl)c2)NC(=O)[C@@H](C)NC1=O	4 (≈ 1.58 µM)	8 (≈ 3.16 µM)	8 (≈ 3.16 µM)	> 32	32 (≈ 12.6 µM)	0.125 (≈ 0.0493 µM)	4 (≈ 1.58 µM)	8 (≈ 3.16 µM)	4 (≈ 1.58 µM)	> 32	> 32	4	0
CCCCCCCCC(=O)N[C@@H](CC(N)=O)C(=O)NC[C@@H]1C(=O)N[C@H](c2ccc(O)cc2)C(=O)N[C@H](CCCN)C(=O)N[C@H](C(C)C)C(=O)N[C@@H](c2ccc(O)cc2)C(=O)N[C@H](c2ccc(O)cc2)C(=O)N[C@@H]([C@@H](C)O)C(=O)N[C@@H](Cc2ccccc2)C(=O)N[C@H](CCCN)C(=O)N[C@@H](c2ccc(O[C@H]3O[C@H](CO)[C@@H](O)[C@H](O)[C@@H]3O[C@H]3O[C@H](CO)[C@@H](O)[C@H](O)[C@@H]3O)cc2)C(=O)N[C@H]([C@@H](C)O)C(=O)N[C@@H](c2ccc(O)cc2)C(=O)NCC(=O)N[C@@H](CC(C)C)C(=O)N[C@H](C)C(=O)N[C@@H](c2ccc(O)c(Cl)c2)C(=O)O[C@@H]1C(N)=O	0.06 (≈ 0.0233 µM)	0.25 (≈ 0.0973 µM)	1 (≈ 0.389 µM)	8 (≈ 3.11 µM)	4 (≈ 1.56 µM)	0.125 (≈ 0.0486 µM)	0.06 (≈ 0.0233 µM)	0.125 (≈ 0.0486 µM)	< 0.03	> 32	> 32	5	0
